For one assay, the target named is T1, Insulin-degrading enzyme (Homo sapiens, UniProt P14735).
T1 sequence (P14735 whole entry): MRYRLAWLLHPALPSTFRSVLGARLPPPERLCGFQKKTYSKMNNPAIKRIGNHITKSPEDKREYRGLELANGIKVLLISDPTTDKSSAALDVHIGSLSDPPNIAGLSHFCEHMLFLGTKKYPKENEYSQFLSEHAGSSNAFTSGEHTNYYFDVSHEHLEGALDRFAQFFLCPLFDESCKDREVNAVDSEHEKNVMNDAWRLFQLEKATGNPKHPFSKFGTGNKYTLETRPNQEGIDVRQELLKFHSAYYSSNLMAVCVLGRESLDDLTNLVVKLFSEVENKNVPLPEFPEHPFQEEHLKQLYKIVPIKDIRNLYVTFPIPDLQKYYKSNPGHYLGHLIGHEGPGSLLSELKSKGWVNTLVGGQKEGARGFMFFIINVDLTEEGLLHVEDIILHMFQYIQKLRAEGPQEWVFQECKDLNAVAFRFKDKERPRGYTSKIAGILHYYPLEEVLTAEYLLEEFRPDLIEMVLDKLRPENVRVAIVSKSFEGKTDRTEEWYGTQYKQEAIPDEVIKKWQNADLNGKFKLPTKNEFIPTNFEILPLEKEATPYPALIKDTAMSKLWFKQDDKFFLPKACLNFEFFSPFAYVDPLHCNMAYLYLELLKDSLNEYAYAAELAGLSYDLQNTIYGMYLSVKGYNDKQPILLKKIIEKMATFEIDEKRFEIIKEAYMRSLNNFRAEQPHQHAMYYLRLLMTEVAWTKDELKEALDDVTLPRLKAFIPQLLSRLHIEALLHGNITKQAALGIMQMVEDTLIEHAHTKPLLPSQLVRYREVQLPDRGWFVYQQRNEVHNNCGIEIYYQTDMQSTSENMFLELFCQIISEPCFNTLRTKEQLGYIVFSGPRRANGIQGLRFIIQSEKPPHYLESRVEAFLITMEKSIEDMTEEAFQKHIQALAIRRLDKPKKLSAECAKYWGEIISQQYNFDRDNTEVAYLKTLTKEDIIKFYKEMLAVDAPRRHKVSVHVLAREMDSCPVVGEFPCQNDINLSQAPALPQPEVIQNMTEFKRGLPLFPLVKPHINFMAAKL
Briefly: Dose Response: Fluorescence polarization-based cell-based high throughput dose response assay for inhibitors of insulin-degrading enzyme (IDE). [Related pubchem assays: 434962 (Primary screen (IDE inhibitors in singlicate)), 449730 (Counterscreen (Cytotoxicity in triplicate)), 435028 (Confirmation (IDE inhibitors in triplicate)), 434984 (Summary …. In kind it is functional. A general note: Fluorescence polarisation rises when a labelled molecule tumbles more slowly, as on binding a larger partner.

A short description of assay [1]: Counterscreen for IDE inhibitors: Luminescence-based cell-based high throughput dose response assay to identify compounds that are cytotoxic to HEK cells. [Related pubchem assays: 434962 (Primary screen (IDE inhibitors in singlicate)), 449730 (Counterscreen (Cytotoxicity in triplicate)), 435028 (Confirmation (IDE inhibitors in triplicate)) …. The note with it: HEK293. In kind it is functional.

Assay [2] is described as follows: mitochondrial function rescue without frataxin homolog – Friedreich's ataxia, plus single-dose screen, dose response (AID 1465).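 Further: yeast depleted of Yfh1p frataxin homolog grown on glycerol needing respiration; WST-1 tetrazolium dye reduction as measure of cellular dehydrogenase metabolic activity.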 The assay is classed as functional.
In a further assay the target is Troponin, cardiac muscle (Homo sapiens, UniProt P19429+P45379+P63316). Briefly: Fluorescence-based biochemical high throughput dose response assay for activators of the calcium sensitivity of cardiac Regulated Thin Filaments (RTF). [Related pubchem assays (depositor defined):AID493008, AID493018, AID504382, AID504383]. The assay is classed as protein-complex assay.

The target in assay [3] is Lysosomal acid glucosylceramidase (Homo sapiens, UniProt P04062). As to the kind of experiment: Dose response cell-based high throughput screening assay to identify enhancers of beta-glucosidase activity. [Related pubchem assays: 784 ]. The assay is classed as functional.
Sequence of Lysosomal acid glucosylceramidase (P04062 whole entry): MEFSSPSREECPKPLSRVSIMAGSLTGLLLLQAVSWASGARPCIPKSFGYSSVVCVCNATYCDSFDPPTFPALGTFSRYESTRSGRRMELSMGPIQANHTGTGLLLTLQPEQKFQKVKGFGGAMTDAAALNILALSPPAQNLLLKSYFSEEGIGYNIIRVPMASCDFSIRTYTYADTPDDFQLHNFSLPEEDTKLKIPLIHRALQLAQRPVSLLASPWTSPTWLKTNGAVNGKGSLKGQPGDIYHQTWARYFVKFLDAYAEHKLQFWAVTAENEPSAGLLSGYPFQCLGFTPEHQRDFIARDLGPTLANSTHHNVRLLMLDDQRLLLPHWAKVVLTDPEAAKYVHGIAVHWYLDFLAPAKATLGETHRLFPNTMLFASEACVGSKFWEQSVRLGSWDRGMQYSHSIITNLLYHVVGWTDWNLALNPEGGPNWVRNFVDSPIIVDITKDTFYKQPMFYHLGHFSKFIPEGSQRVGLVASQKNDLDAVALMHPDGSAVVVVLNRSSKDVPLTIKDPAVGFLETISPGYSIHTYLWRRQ
A further assay has as its target Bcl-2-like protein 10 (Homo sapiens, UniProt Q9HD36). Briefly: Concentration-response of Bcl-B inhibitors by biochemical FP with TR3 (AID 1243). The assay is classed as functional.
In assay [4] the test system is HEK293. Briefly: TNF Induced NF-kB Luciferase in 293-NF-kB-Luc Stable Cells. [Related pubchem assays: 1266, 1299, 1269, 1373, 1292, 1290, 1302, 1371, 1283, 1270, 1295, 1271, 1375, 1294, 1374, 1281, 1293, 1291, 1289, 1280, 465, 1368, 1364, 1282, 1372, 1365, 1369, 1370, 1367, 1366 ]. In kind it is functional, cell-based. The settings on record: Homo sapiens.
For assay [5], the system named is HEK293. Briefly: PMA/Ionomycin induced NF-kB luciferase assay in 293- NF-kB-Luc stable cells. [Related pubchem assays: 1299, 1270, 1295, 1375, 1287, 1281, 1293, 1291, 1289, 1280, 465, 1364, 1282, 1372, 1365, 1370, 1367, 1366, 1269, 1373, 1292, 1290, 1302, 1371, 1283, 1271, 1294, 1374, 1368, 1369 ]. The note with it: Homo sapiens. The assay is classed as functional, cell-based.

Assay [6] addresses Luciferin 4-monooxygenase (Photinus pyralis, UniProt P08659). As to the kind of experiment: In vitro luciferase assay using purified luciferase. [Related pubchem assays: 1299, 1270, 1295, 1375, 1287, 1281, 1293, 1291, 1289, 1280, 465, 1364, 1282, 1372, 1365, 1370, 1367, 1366, 1266, 1373, 1292, 1290, 1302, 1371, 1283, 1271, 1294, 1374, 1368, 1369 ].
Assay [7] has as its system HEK293. Briefly: PMA/Ionomycin-induced IL-8 production in HEK293- NF-kB-Luc stable cells. [Related pubchem assays: 1299, 1295, 1375, 1287, 1281, 1293, 1291, 1289, 1280, 465, 1364, 1282, 1372, 1365, 1367, 1366, 1266, 1269, 1373, 1292, 1290, 1302, 1371, 1283, 1271, 1294, 1374, 1368, 1369 ]. In kind it is functional, cell-based. The note with it: Homo sapiens.
Assay [8] relates to HEK293. As to the kind of experiment: Cytotoxicity assay in HEK293 cells. [Related pubchem assays (depositor defined):AID1266, AID1269, AID1270, AID1271, AID1280, AID1281, AID1282, AID1283, AID1287, AID1289, AID1290, AID1291, AID1292, AID1293, AID1294, AID1295, AID1299, AID1302, AID1364, AID1365, AID1366, AID1367, AID1369, AID1370, AID1371, AID1372, AID1373, AID1374, AID1375, AID1384 …. The assay is classed as functional, cell-based. The settings on record: Homo sapiens.

Another assay relates to Streptococcus. Briefly: Luminescence Microorganism-Based Dose Response Follow up to Identify Compounds Cytotoxic to Streptococcus. [Related pubchem assays: 1677 (Project Summary), 1915, 1914, 1902 (Retest at Dose), 1900 (Counter Screen), 1662 (Primary HTS)]. The assay is classed as functional, organism-based.

SMILES strings stand for the structures. Active and inactive are the calls of the source. Bounds are passed on as bounds.

Sequence of Luciferin 4-monooxygenase (P08659 whole entry): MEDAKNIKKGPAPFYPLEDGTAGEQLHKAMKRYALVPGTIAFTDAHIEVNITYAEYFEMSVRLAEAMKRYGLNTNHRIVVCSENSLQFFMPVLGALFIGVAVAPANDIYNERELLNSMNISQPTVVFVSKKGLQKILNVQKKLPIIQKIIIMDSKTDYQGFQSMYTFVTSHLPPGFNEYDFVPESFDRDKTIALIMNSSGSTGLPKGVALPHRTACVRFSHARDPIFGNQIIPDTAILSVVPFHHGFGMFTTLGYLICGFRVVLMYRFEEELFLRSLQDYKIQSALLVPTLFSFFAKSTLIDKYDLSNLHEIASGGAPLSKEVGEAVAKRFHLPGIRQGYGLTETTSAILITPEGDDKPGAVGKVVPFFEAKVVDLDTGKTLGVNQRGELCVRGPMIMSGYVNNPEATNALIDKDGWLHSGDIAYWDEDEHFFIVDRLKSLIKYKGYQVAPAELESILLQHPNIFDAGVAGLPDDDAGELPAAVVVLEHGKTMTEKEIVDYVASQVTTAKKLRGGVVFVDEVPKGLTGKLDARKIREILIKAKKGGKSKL
Sequence of Bcl-2-like protein 10 (Q9HD36 whole entry): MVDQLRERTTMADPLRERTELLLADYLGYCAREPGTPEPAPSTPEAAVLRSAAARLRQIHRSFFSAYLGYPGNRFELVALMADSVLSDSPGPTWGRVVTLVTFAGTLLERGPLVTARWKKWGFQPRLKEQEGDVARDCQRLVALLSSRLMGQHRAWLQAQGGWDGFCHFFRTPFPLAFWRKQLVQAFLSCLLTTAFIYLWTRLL

Broadly, the IC50 is the midpoint of a concentration-inhibition curve. A lower IC50 goes with greater potency. What is called EC50 is the concentration giving half of the maximal effect. For the molecule `CCOC(=O)/C(=C/C1=CC(=C/N(C)C)/C(=O)O1)C(C)=O`, the IC50 on Insulin-degrading enzyme is 22.1 µM (not active); in [1], > 55.7 µM (not active). Also, the EC50 in [2] is > 100 µM (active); at Troponin, cardiac muscle it was 7.74 µM (active).
Consider `COc1ccc(CNC(=O)CCCNS(=O)(=O)c2cccc3nonc23)cc1`, for which the EC50 in assay [3] is > 50 µM (not active).
As for `O=C(O)Cc1c[nH]c2ccc(O)cc12`, on Bcl-2-like protein 10, the EC50 is 7.88 µM (active).
In the case of `O=C(NC1CCCCCC1)c1ccc([N+](=O)[O-])o1`, the EC50 in the assay with HEK293 [4] is > 8 µM (not active); in the assay on HEK293 [5], 3.29 µM (active); in assay [6], > 8 µM (not active); in the assay with HEK293 [7], 4.02 µM (not active); in the assay on HEK293 [8] it was > 8 µM (inactive).
Regarding `O=C(CSc1cccs1)N1c2ccccc2Sc2ccccc21`, in the assay with Streptococcus, the EC50 is recorded as > 500 µM (not active).

The values are drawn from ChEMBL document CHEMBL1201862, “PubChem BioAssay data set” (2004).
